# Results published in ChEMBL document CHEMBL3045611, “Identification of the G143A mutation associated with QoI resistance in Cercospora beticola field isolates from Michigan, United States” (Pest Manag Sci, 2013).
# Legend:
# Type in all cases: functional, organism-based
# Cercospora beticola [1] = experiment: Antifungal activity against Cercospora beticola isolate 11-1005-2 expressing cytb with alanine at codon 143 assessed as reduction in spore germination
# Cercospora beticola [2] = experiment: Antifungal activity against Cercospora beticola isolate 11-1006-2 expressing cytb with alanine at codon 143 assessed as reduction in spore germination
# Cercospora beticola [3] = experiment: Antifungal activity against Cercospora beticola isolate 11-1007-1 expressing cytb with alanine at codon 143 assessed as reduction in spore germination
# Cercospora beticola [4] = experiment: Antifungal activity against Cercospora beticola isolate 11-1007-2 expressing cytb with alanine at codon 143 assessed as reduction in spore germination
# Cercospora beticola [5] = experiment: Antifungal activity against Cercospora beticola isolate 11-1008-1 expressing cytb with alanine at codon 143 assessed as reduction in spore germination
# Cercospora beticola [6] = experiment: Antifungal activity against Cercospora beticola isolate 11-1009-1 expressing cytb with alanine at codon 143 assessed as reduction in spore germination
# Cercospora beticola [7] = experiment: Antifungal activity against Cercospora beticola isolate 11-1014-1 expressing cytb with alanine at codon 143 assessed as reduction in spore germination
# Cercospora beticola [8] = experiment: Antifungal activity against Cercospora beticola isolate 11-1015-1 expressing cytb with alanine at codon 143 assessed as reduction in spore germination
# Cercospora beticola [9] = experiment: Antifungal activity against Cercospora beticola isolate 11-1015-2 expressing cytb with alanine at codon 143 assessed as reduction in spore germination
# Cercospora beticola [10] = experiment: Antifungal activity against Cercospora beticola isolate 11-1016-1 expressing cytb with alanine at codon 143 assessed as reduction in spore germination
# Cercospora beticola [11] = experiment: Antifungal activity against Cercospora beticola isolate 11-1022-1 expressing cytb with alanine at codon 143 assessed as reduction in spore germination
# Cercospora beticola [12] = experiment: Antifungal activity against Cercospora beticola isolate 11-1022-2 expressing cytb with alanine at codon 143 assessed as reduction in spore germination
# Cercospora beticola [13] = experiment: Antifungal activity against Cercospora beticola isolate 11-1026-1 expressing cytb with alanine at codon 143 assessed as reduction in spore germination
# Cercospora beticola [14] = experiment: Antifungal activity against Cercospora beticola isolate 11-1026-2 expressing cytb with alanine at codon 143 assessed as reduction in spore germination
# Cercospora beticola [15] = experiment: Antifungal activity against Cercospora beticola isolate 98-101-5-M expressing cytb with glycine at codon 143 assessed as reduction in spore germination
# Cercospora beticola [16] = experiment: Antifungal activity against Cercospora beticola isolate 98-150-M expressing cytb with glycine at codon 143 assessed as reduction in spore germination
# Cercospora beticola [17] = experiment: Antifungal activity against Cercospora beticola isolate 99-233-3-M expressing cytb with glycine at codon 143 assessed as reduction in spore germination
# Cercospora beticola [18] = experiment: Antifungal activity against Cercospora beticola isolate 99-521-29-M expressing cytb with glycine at codon 143 assessed as reduction in spore germination
# Cercospora beticola [19] = experiment: Antifungal activity against Cercospora beticola isolate 11-1003-2 expressing cytb with alanine at codon 143 assessed as reduction in spore germination
# Cercospora beticola [20] = experiment: Antifungal activity against Cercospora beticola isolate 11-1004-1 expressing cytb with alanine at codon 143 assessed as reduction in spore germination
# Cercospora beticola [21] = experiment: Antifungal activity against Cercospora beticola isolate 11-1005-1 expressing cytb with alanine at codon 143 assessed as reduction in spore germination
# Cercospora beticola [22] = experiment: Antifungal activity against Cercospora beticola isolate 11-1046-2 expressing cytb with alanine at codon 143 assessed as reduction in spore germination
# Cercospora beticola [23] = experiment: Antifungal activity against Cercospora beticola isolate 11-1046-1 expressing cytb with alanine at codon 143 assessed as reduction in spore germination
# Cercospora beticola [24] = experiment: Antifungal activity against Cercospora beticola isolate 11-1045-2 expressing cytb with alanine at codon 143 assessed as reduction in spore germination
# Cercospora beticola [25] = experiment: Antifungal activity against Cercospora beticola isolate 11-1044-2 expressing cytb with alanine at codon 143 assessed as reduction in spore germination
# Cercospora beticola [26] = experiment: Antifungal activity against Cercospora beticola isolate 11-1044-1 expressing cytb with alanine at codon 143 assessed as reduction in spore germination
# Cercospora beticola [27] = experiment: Antifungal activity against Cercospora beticola isolate 98-9-M expressing cytb with glycine at codon 143 assessed as reduction in spore germination
# Cercospora beticola [28] = experiment: Antifungal activity against Cercospora beticola isolate 98-10-M expressing cytb with glycine at codon 143 assessed as reduction in spore germination
# Cercospora beticola [29] = experiment: Antifungal activity against Cercospora beticola isolate 98-12-M expressing cytb with glycine at codon 143 assessed as reduction in spore germination
# Cercospora beticola [30] = experiment: Antifungal activity against Cercospora beticola isolate 98-13-M expressing cytb with glycine at codon 143 assessed as reduction in spore germination
# Cercospora beticola [31] = experiment: Antifungal activity against Cercospora beticola isolate 98-19-M expressing cytb with glycine at codon 143 assessed as reduction in spore germination
# Cercospora beticola [32] = experiment: Antifungal activity against Cercospora beticola isolate 11-1028-1 expressing cytb with alanine at codon 143 assessed as reduction in spore germination
# Cercospora beticola [33] = experiment: Antifungal activity against Cercospora beticola isolate 11-1028-2 expressing cytb with alanine at codon 143 assessed as reduction in spore germination
# Cercospora beticola [34] = experiment: Antifungal activity against Cercospora beticola isolate 11-1035-2 expressing cytb with alanine at codon 143 assessed as reduction in spore germination
# Cercospora beticola [35] = experiment: Antifungal activity against Cercospora beticola isolate 11-1036-1 expressing cytb with alanine at codon 143 assessed as reduction in spore germination
# Cercospora beticola [36] = experiment: Antifungal activity against Cercospora beticola isolate 11-1036-2 expressing cytb with alanine at codon 143 assessed as reduction in spore germination
# Cercospora beticola [37] = experiment: Antifungal activity against Cercospora beticola isolate 11-1037-1 expressing cytb with alanine at codon 143 assessed as reduction in spore germination
# Cercospora beticola [38] = experiment: Antifungal activity against Cercospora beticola isolate 11-1037-2 expressing cytb with alanine at codon 143 assessed as reduction in spore germination
# Cercospora beticola [39] = experiment: Antifungal activity against Cercospora beticola isolate 11-1038-1 expressing cytb with alanine at codon 143 assessed as reduction in spore germination
# Cercospora beticola [40] = experiment: Antifungal activity against Cercospora beticola isolate 11-1038-2 expressing cytb with alanine at codon 143 assessed as reduction in spore germination
# Cercospora beticola [41] = experiment: Antifungal activity against Cercospora beticola isolate 11-1039-1 expressing cytb with alanine at codon 143 assessed as reduction in spore germination
# Cercospora beticola [42] = experiment: Antifungal activity against Cercospora beticola isolate 11-1040-1 expressing cytb with alanine at codon 143 assessed as reduction in spore germination
# Cercospora beticola [43] = experiment: Antifungal activity against Cercospora beticola isolate 11-1040-2 expressing cytb with alanine at codon 143 assessed as reduction in spore germination
# Cercospora beticola [44] = experiment: Antifungal activity against Cercospora beticola isolate 11-1041-1 expressing cytb with alanine at codon 143 assessed as reduction in spore germination
# Cercospora beticola [45] = experiment: Antifungal activity against Cercospora beticola isolate 11-1042-1 expressing cytb with alanine at codon 143 assessed as reduction in spore germination
# Cercospora beticola [46] = experiment: Antifungal activity against Cercospora beticola isolate 11-1042-2 expressing cytb with alanine at codon 143 assessed as reduction in spore germination
# Cercospora beticola [47] = experiment: Antifungal activity against Cercospora beticola isolate 11-1043-2 expressing cytb with alanine at codon 143 assessed as reduction in spore germination
# Cercospora beticola [48] = experiment: Antifungal activity against Cercospora beticola isolate 11-1027-1 expressing cytb with alanine at codon 143 assessed as reduction in spore germination
# Cercospora beticola [49] = experiment: Antifungal activity against Cercospora beticola isolate 11-1027-2 expressing cytb with alanine at codon 143 assessed as reduction in spore germination
smiles,measurement,setting,value
CO/N=C(\C(=O)OC)c1ccccc1CO/N=C(\C)c1cccc(C(F)(F)F)c1,EC50,Cercospora beticola [1],3.25 µg/mL
same,EC50,Cercospora beticola [2],8.46 µg/mL
same,EC50,Cercospora beticola [3],7.65 µg/mL
same,EC50,Cercospora beticola [4],6.84 µg/mL
same,EC50,Cercospora beticola [5],7.49 µg/mL
same,EC50,Cercospora beticola [6],39.4 µg/mL
same,EC50,Cercospora beticola [7],4.54 µg/mL
same,EC50,Cercospora beticola [8],7.3 µg/mL
same,EC50,Cercospora beticola [9],7.79 µg/mL
same,EC50,Cercospora beticola [10],5.89 µg/mL
same,EC50,Cercospora beticola [11],6.86 µg/mL
same,EC50,Cercospora beticola [12],4.98 µg/mL
same,EC50,Cercospora beticola [13],25.9 µg/mL
same,EC50,Cercospora beticola [14],8.55 µg/mL
same,EC50,Cercospora beticola [15],0.006 µg/mL
same,EC50,Cercospora beticola [16],0.004 µg/mL
same,EC50,Cercospora beticola [17],0.004 µg/mL
same,EC50,Cercospora beticola [18],0.005 µg/mL
same,EC50,Cercospora beticola [19],1 µg/mL
same,EC50,Cercospora beticola [20],6.66 µg/mL
same,EC50,Cercospora beticola [21],9.54 µg/mL
same,EC50,Cercospora beticola [22],8.37 µg/mL
same,EC50,Cercospora beticola [23],5.48 µg/mL
same,EC50,Cercospora beticola [24],7.02 µg/mL
same,EC50,Cercospora beticola [25],8.56 µg/mL
same,EC50,Cercospora beticola [26],13.8 µg/mL
same,EC50,Cercospora beticola [27],0.004 µg/mL
same,EC50,Cercospora beticola [28],0.001 µg/mL
same,EC50,Cercospora beticola [29],0.005 µg/mL
same,EC50,Cercospora beticola [30],0.006 µg/mL
same,EC50,Cercospora beticola [31],0.005 µg/mL
same,EC50,Cercospora beticola [32],7.62 µg/mL
same,EC50,Cercospora beticola [33],4.96 µg/mL
same,EC50,Cercospora beticola [34],6.36 µg/mL
same,EC50,Cercospora beticola [35],3.62 µg/mL
same,EC50,Cercospora beticola [36],8.15 µg/mL
same,EC50,Cercospora beticola [37],6.78 µg/mL
same,EC50,Cercospora beticola [38],4.24 µg/mL
same,EC50,Cercospora beticola [39],19.9 µg/mL
same,EC50,Cercospora beticola [40],35.5 µg/mL
same,EC50,Cercospora beticola [41],6.79 µg/mL
same,EC50,Cercospora beticola [42],7.64 µg/mL
same,EC50,Cercospora beticola [43],13.7 µg/mL
same,EC50,Cercospora beticola [44],6.09 µg/mL
same,EC50,Cercospora beticola [45],8.83 µg/mL
same,EC50,Cercospora beticola [46],2.36 µg/mL
same,EC50,Cercospora beticola [47],3.27 µg/mL
same,EC50,Cercospora beticola [48],29.7 µg/mL
same,EC50,Cercospora beticola [49],6.06 µg/mL
COC(=O)N(OC)c1ccccc1COc1ccn(-c2ccc(Cl)cc2)n1 [PYRACLOSTROBIN],EC50,Cercospora beticola [1],7.86 µg/mL
same,EC50,Cercospora beticola [2],9.54 µg/mL
same,EC50,Cercospora beticola [3],4.78 µg/mL
same,EC50,Cercospora beticola [4],16.1 µg/mL
same,EC50,Cercospora beticola [5],4.82 µg/mL
same,EC50,Cercospora beticola [6],47.4 µg/mL
same,EC50,Cercospora beticola [7],5.03 µg/mL
same,EC50,Cercospora beticola [8],72.2 µg/mL
same,EC50,Cercospora beticola [9],2.1 µg/mL
same,EC50,Cercospora beticola [10],51.7 µg/mL
same,EC50,Cercospora beticola [11],29.7 µg/mL
same,EC50,Cercospora beticola [12],6.37 µg/mL
same,EC50,Cercospora beticola [13],7.15 µg/mL
same,EC50,Cercospora beticola [14],7.56 µg/mL
same,EC50,Cercospora beticola [15],0.001 µg/mL
same,EC50,Cercospora beticola [16],0.001 µg/mL
same,EC50,Cercospora beticola [17],0.001 µg/mL
same,EC50,Cercospora beticola [18],0.001 µg/mL
same,EC50,Cercospora beticola [19],0.915 µg/mL
same,EC50,Cercospora beticola [20],5.34 µg/mL
same,EC50,Cercospora beticola [21],46 µg/mL
same,EC50,Cercospora beticola [22],26.2 µg/mL
same,EC50,Cercospora beticola [23],41.7 µg/mL
same,EC50,Cercospora beticola [24],16.2 µg/mL
same,EC50,Cercospora beticola [25],5.23 µg/mL
same,EC50,Cercospora beticola [26],14.3 µg/mL
same,EC50,Cercospora beticola [27],0.001 µg/mL
same,EC50,Cercospora beticola [28],0.001 µg/mL
same,EC50,Cercospora beticola [29],0.001 µg/mL
same,EC50,Cercospora beticola [30],0.006 µg/mL
same,EC50,Cercospora beticola [31],0.003 µg/mL
same,EC50,Cercospora beticola [32],8.79 µg/mL
same,EC50,Cercospora beticola [33],4.53 µg/mL
same,EC50,Cercospora beticola [34],31 µg/mL
same,EC50,Cercospora beticola [35],29.7 µg/mL
same,EC50,Cercospora beticola [36],5.55 µg/mL
same,EC50,Cercospora beticola [37],40.9 µg/mL
same,EC50,Cercospora beticola [38],5.92 µg/mL
same,EC50,Cercospora beticola [39],39.9 µg/mL
same,EC50,Cercospora beticola [40],3.24 µg/mL
same,EC50,Cercospora beticola [41],20.4 µg/mL
same,EC50,Cercospora beticola [42],12 µg/mL
same,EC50,Cercospora beticola [43],22.3 µg/mL
same,EC50,Cercospora beticola [44],4.55 µg/mL
same,EC50,Cercospora beticola [45],31.4 µg/mL
same,EC50,Cercospora beticola [46],32.6 µg/mL
same,EC50,Cercospora beticola [47],16.9 µg/mL
same,EC50,Cercospora beticola [48],25.9 µg/mL
same,EC50,Cercospora beticola [49],4.12 µg/mL
